Counter-ions that a name gives are not always drawn.
Tests used:
[1] = test system: rat brain cytosol binding sites of pregnenolone; assay: Competition trials for PREG [3H] binding in brain cytosol; set-up: key to R.C.R. 50 (relative competition index): IC50(PREG)/IC50(competitor) ×100; PREG = 100; conditions: for R.C.R. 50 (relative competition index): PREG = 100, 50% reduction of specific binding of 100 nM PREG [3H], mean±standard error, n=3
Experimental: (§1) In trials of competition between pregnenolone and different steroids for the binding studied, 0.2 ml of cytosol is incubated with 100 nM of PREG [^3H] and a 1-, 10-, 100-, and 1,000-fold excess of non-radioactive steroid.
To study the specificity of the binding of PREG [^3H], different steroids were used.
(§2) The relative competition index was determined as ratios of the concentrations of the competitor (in the […]) versus PREG causing a reduction of 50% of the specific binding of PREG [^3H]×100 (mean±standard error, n=3).

Cytosol (Rat) = assay: Index of competition with pregnenolone, cytosol (rat); assay type: binding; conditions: Pregnenolone = 100%
Experimental: as §1

MT (Beef) = assay: Index of competition with pregnenolone, MT (beef); assay type: binding; conditions: Pregnenolone = 100%
Experimental: as §1

fetal microtubules = fetal microtubules (Rattus norvegicus, UniProt P15146); assay: Competition for PREG [3H] binding to fetal microtubules (RCR); conditions: PREG = 100
fetal microtubules, sequence (P15146 whole entry): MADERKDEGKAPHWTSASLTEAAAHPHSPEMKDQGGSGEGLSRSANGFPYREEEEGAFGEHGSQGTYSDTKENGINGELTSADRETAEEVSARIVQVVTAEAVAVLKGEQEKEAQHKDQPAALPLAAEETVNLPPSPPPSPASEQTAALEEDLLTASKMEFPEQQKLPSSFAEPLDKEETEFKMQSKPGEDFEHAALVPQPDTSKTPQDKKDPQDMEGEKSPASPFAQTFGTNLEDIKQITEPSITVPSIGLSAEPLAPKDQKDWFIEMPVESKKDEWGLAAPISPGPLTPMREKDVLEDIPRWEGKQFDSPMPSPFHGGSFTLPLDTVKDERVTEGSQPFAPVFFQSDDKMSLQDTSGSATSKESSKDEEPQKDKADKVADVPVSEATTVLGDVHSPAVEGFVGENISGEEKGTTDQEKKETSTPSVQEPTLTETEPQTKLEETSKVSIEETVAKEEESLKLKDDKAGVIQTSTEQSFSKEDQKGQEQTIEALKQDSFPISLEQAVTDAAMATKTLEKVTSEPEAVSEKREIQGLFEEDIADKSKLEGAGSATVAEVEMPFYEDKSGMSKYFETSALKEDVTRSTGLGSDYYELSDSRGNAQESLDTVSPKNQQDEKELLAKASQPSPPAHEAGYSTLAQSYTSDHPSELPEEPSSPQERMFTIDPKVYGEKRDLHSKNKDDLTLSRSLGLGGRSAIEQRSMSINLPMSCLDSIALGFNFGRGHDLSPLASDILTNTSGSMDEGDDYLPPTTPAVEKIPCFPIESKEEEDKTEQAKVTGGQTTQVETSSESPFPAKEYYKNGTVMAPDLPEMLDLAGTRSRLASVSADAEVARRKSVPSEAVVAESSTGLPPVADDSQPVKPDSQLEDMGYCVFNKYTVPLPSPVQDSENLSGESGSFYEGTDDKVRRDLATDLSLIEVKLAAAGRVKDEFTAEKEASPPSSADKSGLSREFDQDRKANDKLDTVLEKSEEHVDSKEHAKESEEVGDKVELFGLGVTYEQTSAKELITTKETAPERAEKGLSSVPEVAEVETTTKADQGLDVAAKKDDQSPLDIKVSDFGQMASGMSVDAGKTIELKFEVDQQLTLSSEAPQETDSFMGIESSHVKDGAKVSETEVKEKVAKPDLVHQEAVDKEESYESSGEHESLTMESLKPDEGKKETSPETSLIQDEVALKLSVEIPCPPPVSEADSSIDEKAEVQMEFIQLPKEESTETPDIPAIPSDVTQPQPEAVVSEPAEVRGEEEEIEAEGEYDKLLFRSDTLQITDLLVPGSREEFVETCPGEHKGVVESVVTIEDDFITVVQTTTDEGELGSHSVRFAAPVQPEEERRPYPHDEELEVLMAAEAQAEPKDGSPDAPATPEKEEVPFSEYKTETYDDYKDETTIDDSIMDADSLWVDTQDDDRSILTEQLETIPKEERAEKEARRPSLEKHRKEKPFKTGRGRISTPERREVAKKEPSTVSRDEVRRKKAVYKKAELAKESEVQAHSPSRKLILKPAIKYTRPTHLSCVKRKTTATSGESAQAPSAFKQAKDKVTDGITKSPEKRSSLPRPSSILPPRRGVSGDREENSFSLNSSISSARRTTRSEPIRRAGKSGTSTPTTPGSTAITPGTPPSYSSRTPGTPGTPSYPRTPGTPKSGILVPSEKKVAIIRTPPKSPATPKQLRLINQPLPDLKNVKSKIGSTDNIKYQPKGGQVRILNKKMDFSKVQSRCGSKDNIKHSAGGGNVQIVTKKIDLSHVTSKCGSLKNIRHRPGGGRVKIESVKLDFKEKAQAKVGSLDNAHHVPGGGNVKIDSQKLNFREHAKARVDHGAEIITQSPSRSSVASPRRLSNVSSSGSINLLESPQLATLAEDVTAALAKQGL
Experimental: as §1
The microtubules are prepared starting from calf brain or adult or fetal rat brain according to an assembly/disassembly method, as a function of the temperature, in vitro (12).
as §2
The binding of PREG [^3H] to microtubules prepared by polymerization/depolymerization cycles was determined.

[2] = target: T1, microtubules reconstituted with purified tubulin and MAP2 (Bos taurus, UniProt A0A3Q1NAK9); assay: Kinetics of assembling of microtubules (turbidity at 345 nm); assay type: biochemical, calf; conditions: for effect on assembling of microtubules (absorbance at 345 nm): 500 nM steroid, 37° C., 15 min
T1 construct: from tissue; host or cells: calf brain
T1 sequence (A0A3Q1NAK9 1-1867): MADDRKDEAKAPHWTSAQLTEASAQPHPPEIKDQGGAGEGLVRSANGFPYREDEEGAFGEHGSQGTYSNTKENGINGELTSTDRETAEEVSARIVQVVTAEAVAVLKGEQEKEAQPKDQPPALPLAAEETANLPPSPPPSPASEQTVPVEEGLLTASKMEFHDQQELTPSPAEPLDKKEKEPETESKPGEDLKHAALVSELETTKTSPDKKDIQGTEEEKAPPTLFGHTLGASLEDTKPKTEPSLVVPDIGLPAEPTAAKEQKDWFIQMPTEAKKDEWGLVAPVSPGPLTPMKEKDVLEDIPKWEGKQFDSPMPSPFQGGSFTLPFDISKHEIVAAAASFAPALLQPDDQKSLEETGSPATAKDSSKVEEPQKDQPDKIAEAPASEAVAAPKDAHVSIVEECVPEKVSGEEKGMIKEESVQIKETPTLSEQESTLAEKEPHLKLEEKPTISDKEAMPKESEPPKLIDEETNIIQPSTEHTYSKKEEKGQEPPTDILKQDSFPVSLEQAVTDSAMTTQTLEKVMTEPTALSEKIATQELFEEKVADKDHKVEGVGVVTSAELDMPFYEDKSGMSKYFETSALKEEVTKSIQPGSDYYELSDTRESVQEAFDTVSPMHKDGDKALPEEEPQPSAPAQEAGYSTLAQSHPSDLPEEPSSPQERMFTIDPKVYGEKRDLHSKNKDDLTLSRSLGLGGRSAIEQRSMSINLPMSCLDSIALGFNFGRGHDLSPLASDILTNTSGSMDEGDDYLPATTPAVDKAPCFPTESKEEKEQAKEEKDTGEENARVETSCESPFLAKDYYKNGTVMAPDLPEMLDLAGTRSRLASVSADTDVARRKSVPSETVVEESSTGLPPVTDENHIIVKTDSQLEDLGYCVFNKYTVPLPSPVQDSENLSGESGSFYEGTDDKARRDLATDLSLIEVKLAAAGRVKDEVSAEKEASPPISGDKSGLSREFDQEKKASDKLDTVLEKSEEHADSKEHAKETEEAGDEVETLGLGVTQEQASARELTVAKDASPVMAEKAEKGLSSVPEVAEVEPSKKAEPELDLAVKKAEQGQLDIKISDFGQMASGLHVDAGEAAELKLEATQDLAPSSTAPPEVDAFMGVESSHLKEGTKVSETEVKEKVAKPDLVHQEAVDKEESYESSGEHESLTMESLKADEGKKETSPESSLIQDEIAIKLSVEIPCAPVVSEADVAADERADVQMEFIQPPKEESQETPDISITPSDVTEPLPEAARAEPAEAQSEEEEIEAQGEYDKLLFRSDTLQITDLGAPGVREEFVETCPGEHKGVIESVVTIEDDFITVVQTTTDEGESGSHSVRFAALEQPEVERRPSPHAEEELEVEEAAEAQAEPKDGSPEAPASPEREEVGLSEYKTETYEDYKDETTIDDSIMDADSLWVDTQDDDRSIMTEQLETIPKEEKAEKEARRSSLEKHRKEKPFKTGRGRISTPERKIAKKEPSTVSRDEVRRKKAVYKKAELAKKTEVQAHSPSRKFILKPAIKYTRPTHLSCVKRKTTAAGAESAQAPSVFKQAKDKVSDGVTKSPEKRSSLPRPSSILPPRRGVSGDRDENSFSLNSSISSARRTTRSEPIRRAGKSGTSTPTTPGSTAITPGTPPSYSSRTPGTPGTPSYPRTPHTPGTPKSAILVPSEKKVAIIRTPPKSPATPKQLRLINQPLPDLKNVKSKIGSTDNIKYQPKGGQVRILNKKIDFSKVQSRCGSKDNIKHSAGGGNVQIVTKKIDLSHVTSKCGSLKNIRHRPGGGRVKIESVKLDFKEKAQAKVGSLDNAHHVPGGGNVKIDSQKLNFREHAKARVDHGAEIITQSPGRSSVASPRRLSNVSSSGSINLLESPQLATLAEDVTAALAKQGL
Experimental: This assembling is measured by monitoring the increases of turbidity with a UVICON® spectrophotometer (Kontron Instruments, Montigny-le-Bretonneux, France)
The microtubules are reconstituted in vitro with purified tubulin (1 mg/ml) and MAP2 (0.05 mg/ml) in buffer A.
The increase of absorbance is measured at 345 nm, at 37° C. and recorded every 30 sec. for 15 min.
The assembling of microtubules is measured either in the absence of steroids (-⋄-); or in the presence of 500 nM of steroid: PREG (- -), progesterone (-X-), estradiol (-V-); or in the presence, at the same time, of PREG and progesterone (-∘-) or of PREG and estradiol (-Δ-) each at a concentration of 500 nM.

MAP2-tubulin copolymers = MAP2-tubulin copolymers (Bos taurus, UniProt A0A3Q1NAK9); assay: Competition for PREG [3H] binding to MAP2-tubulin copolymers (RCR); set-up: species or system calf; conditions: for RCR: MAP2-tubulin copolymers, PREG = 100
MAP2-tubulin copolymers, sequence (A0A3Q1NAK9 1-1867): as above
Experimental: as §1, §2
Purified calf brain tubulin (90 μg/ml), MAP2 (45 μg/ml) or tau protein (25 μg/ml) is incubated with 100 nM of PREG [^3H], with or without a 1,000-fold excess of non-radioactive PREG.

MAP-2c + Tubuline = target: T2, MAP-2c + Tubuline (Homo sapiens, UniProt P11137); assay: Index of competition with pregnenolone, MAP-2c + tubulin; assay type: binding; conditions: Pregnenolone = 100%
T2 sequence (P11137 1-471 isoform P11137-2): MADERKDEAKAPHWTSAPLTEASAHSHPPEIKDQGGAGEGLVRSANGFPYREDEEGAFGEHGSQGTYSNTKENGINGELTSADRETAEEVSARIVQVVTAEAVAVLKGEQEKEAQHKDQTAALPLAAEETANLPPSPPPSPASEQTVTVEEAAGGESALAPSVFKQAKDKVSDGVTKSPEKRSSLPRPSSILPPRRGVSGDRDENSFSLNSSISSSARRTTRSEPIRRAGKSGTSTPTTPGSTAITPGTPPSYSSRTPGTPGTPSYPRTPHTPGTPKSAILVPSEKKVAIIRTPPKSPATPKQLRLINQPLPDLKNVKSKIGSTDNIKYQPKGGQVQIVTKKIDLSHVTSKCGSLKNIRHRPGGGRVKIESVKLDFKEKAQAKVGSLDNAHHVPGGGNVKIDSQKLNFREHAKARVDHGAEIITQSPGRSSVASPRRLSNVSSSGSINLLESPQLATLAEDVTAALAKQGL
Experimental: as §1

Cytosol (piglet) = assay: Index of competition with pregnenolone, cytosol (piglet); assay type: binding; conditions: Pregnenolone = 100%; cell marked piglet
Experimental: as §1

[3] = test system: binding sites of PREG [3H] in brain cytosol; assay: Effects of hydrolytic enzymes on the binding of PREG [3H] in cytosol; set-up: species or system rat
Experimental: Proteinase K (Merck, Darmstadt, Germany) and Pronase® are dissolved at 1 mg/ml in TNM buffer containing 10 mM of Tris, 0.1M of NaCl, 3 mM of MgCl2 (pH 7.4). Deoxyribonuclease I and ribonuclease A are products of Sigma-Aldrich and are respectively adjusted to 100 IU/ml and 5 IU/ml. Phospholipase A2 (Roche Molecular Biochemicals) is diluted to 20 IU/ml in TNM.
1 ml of brain cytosol is incubated with 0.2 ml of an enzyme solution at 37° C. for 30 min. The binding activity is studied of samples (0.2 ml) which had undergone the enzyme treatment or control samples diluted with buffer only.
To study the effects of hydrolytic enzymes on the binding of PREG [^3H], samples of 1 ml of cytosol incubated with 0.2 ml of an enzyme solution at 37° C. for 30 min were used. The results obtained, expressed as % of the control incubation (cytosol diluted in a buffer) are reported in Table 1 (mean±standard error, n=3).

CC(C)CCC[C@@H](C)[C@H]1CC[C@H]2[C@@H]3CC=C4C[C@@H](O)CC[C@]4(C)[C@H]3CC[C@]12C [Cholesterol]
R.C.R. 50 (relative competition index) [1]: 0.02

C[C@H](O)C1CCC2C3CCC4CC(O)CCC4(C)C3CCC21C (stereo partly drawn) [5a-Pregnama 3β, 20a-diol]
Index of Competition, Cytosol (Rat) (Cytosol (Rat)): 100%
Index of Competition, MT (Beef) (MT (Beef)): 96%

[2H]OC1CCC2(C)C(=CCC3C2CCC2(C)C3CCC2[C@H](C)O)C1 (stereo partly drawn) [Δ5-pregnene-3β.20α-diol, Δ5-pregnene-3β, 20α-diol]
Index of Competition, Cytosol (Rat) (Cytosol (Rat)): 87%
competition for the binding of PREG [3H] (in words) [1]: best competitors
R.C.R. 50 (relative competition index) [1]: 68.4 ± 15.3
Index of Competition, MT (Beef) (MT (Beef)): 100 (beef) %

CC(=O)[C@H]1CC[C@H]2[C@@H]3CCC4=CC(=O)CC[C@]4(C)[C@H]3CC[C@]12C [Progesterone]
RCR (fetal microtubules): 72.1
effect on assembling of microtubules (absorbance at 345 nm) [2]: without effect
effect on PREG-stimulated assembly of microtubules ([2]; with PREG, each at 500 nM): counteracts the stimulative effect of PREG on the assembly of microtubules
competition for the binding of PREG [3H] (in words) [1]: best competitors
R.C.R. 50 (relative competition index) [1]: 72.1 ± 17.7
binding to MAP2 (in words) (MAP2-tubulin copolymers): affinity for MAP2 of the same order as that of PREG
RCR (MAP2-tubulin copolymers): 81.3

[2H]OC1CCC2(C)C(=CCC3C2CCC2(C)C3CC(C)C2C(C)=O)C1 (stereo not drawn) [PREG-16β-methyl]
Index of Competition, MAP-2c + Tubuline (MAP-2c + Tubuline): 97%
Index of Competition, Cytosol (Rat) (Cytosol (Rat)): 63%
Index of Competition, MT (Beef) (MT (Beef)): 83 (beef) %

CC(=O)C1CCC2C3CC=C4CC(OS(=O)(=O)O)CCC4(C)C3CCC12C (stereo not drawn) [Preqnenolone sulfate, pregnenolone sulfate]
RCR (fetal microtubules): 78.8
effect on assembling of microtubules (absorbance at 345 nm) [2]: effects similar to those of progesterone
competition for the binding of PREG [3H] (in words) [1]: best competitors
R.C.R. 50 (relative competition index) [1]: 78.8 ± 7.0
RCR (MAP2-tubulin copolymers): 91.5

CC(=O)[C@H]1CC[C@H]2[C@@H]3CC[C@H]4C[C@@H](O)CC[C@]4(C)[C@H]3CC[C@]12C [3β-hydroxy-5α-pregnane 20-one, 3β-hydroxy-5α-pregnane-20-one]
competition for the binding of PREG [3H] (in words) [1]: effective competitor
times less active than PREG as competitor [1]: 5 times
R.C.R. 50 (relative competition index) [1]: 18.4 ± 4.0

CC(=O)C1[C@H](C)CC2C3CC=C4CC(O)CCC4(C)C3CCC21C (stereo partly drawn) [PREG-16a-methyl]
Index of Competition, Cytosol (Rat) (Cytosol (Rat)): 80%
Index of Competition, MT (Beef) (MT (Beef)): 88%

CC(=O)[C@@]1(O)CC[C@H]2[C@@H]3CCC4=CC(=O)CC[C@]4(C)[C@H]3CC[C@@]21C [17α-hydroxy-progesterone]
R.C.R. 50 (relative competition index) [1]: 0.79

C[C@]12CC[C@H](O)CC1=CC[C@@H]1[C@@H]2CC[C@]2(C)C(=O)CC[C@@H]12 [Dehydroepiandrosterone]
RCR (MAP2-tubulin copolymers): 2.3

CC(=O)OCC(=O)[C@H]1CC[C@H]2[C@@H]3CC=C4C[C@@H](O)CC[C@]4(C)[C@H]3CC[C@]12C [3β-OH-Pregna-5-ene-20-one-21-acetoxy]
Index of Competition, MT (Beef) (MT (Beef)): 107%
Index of Competition, Cytosol (piglet) (Cytosol (piglet)): 80 (piglet) %

CC(=O)[C@@]1(O)CC[C@H]2[C@@H]3CC=C4C[C@@H](O)CC[C@]4(C)[C@H]3CC[C@@]21C [17α-hydroxy-pregnenolone]
R.C.R. 50 (relative competition index) [1]: 0.85

CC(=O)C1CCC2C3CC=C4CC(OS(=O)(=O)c5ccc(C)cc5)CCC4(C)C3CCC12C (stereo not drawn) [PREG Tosylate]
Index of Competition, MAP-2c + Tubuline (MAP-2c + Tubuline): 129%
Index of Competition, Cytosol (Rat) (Cytosol (Rat)): 107%
Index of Competition, MT (Beef) (MT (Beef)): 121%

C[C@]12CC[C@@H]3c4ccc(O)cc4CC[C@H]3[C@@H]1CC[C@@H]2O [Estradiol]
effect on assembling of microtubules (absorbance at 345 nm) [2]: inactive

Phospholipase A2 [reference compound]
% of Control (binding of PREG [3H]) ([3]; cytosol incubated with enzyme at 37° C. for 30 min, mean±standard error, n=3): 85.0 ± 7.3%
effect on binding sites of PREG [3H] (in words) ([3]; enzyme treatment of cytosol): no significant effect

CC(=O)C1CC=C2C3CC=C4CC(O)CCC4(C)C3CCC21C (stereo not drawn) [3β-OH-5, 14 Preqnadiene-20-one]
Index of Competition, Cytosol (Rat) (Cytosol (Rat)): 102%
Index of Competition, MT (Beef) (MT (Beef)): 95%

C[C@]12CC[C@H]3[C@@H](CCC4=CC(=O)CC[C@@]43C)[C@@H]1CC[C@@H]2O [Testosterone, reference compound]
RCR (fetal microtubules): 5.6
RCR (MAP2-tubulin copolymers): 2.3

Reference: patent publication US20030125311A1, “Compounds capable of binding with the cytoskeleton” (priority 2002, published 2003)
